According to patent publication US10231980B2, “Cortexolone 17alpha-benzoate for use in the treatment of tumours” (COSMO TECHNOLOGIES LTD., priority 2014, dated 2019):
Like-named read-outs stand apart in the source and are kept apart here.

Key:
[1] = target: T1, glucocorticoid receptor (GR) (Homo sapiens, UniProt P04150); experiment: GR reporter antagonist assay (inhibition of Dexamethasone-induced luminescence); assay type: cell-based; details: inhibition of Dex-induced luminescence
T1 construct: endogenous in cells; host or cells: human kidney epithelial cells
T1 sequence (P04150 1-777): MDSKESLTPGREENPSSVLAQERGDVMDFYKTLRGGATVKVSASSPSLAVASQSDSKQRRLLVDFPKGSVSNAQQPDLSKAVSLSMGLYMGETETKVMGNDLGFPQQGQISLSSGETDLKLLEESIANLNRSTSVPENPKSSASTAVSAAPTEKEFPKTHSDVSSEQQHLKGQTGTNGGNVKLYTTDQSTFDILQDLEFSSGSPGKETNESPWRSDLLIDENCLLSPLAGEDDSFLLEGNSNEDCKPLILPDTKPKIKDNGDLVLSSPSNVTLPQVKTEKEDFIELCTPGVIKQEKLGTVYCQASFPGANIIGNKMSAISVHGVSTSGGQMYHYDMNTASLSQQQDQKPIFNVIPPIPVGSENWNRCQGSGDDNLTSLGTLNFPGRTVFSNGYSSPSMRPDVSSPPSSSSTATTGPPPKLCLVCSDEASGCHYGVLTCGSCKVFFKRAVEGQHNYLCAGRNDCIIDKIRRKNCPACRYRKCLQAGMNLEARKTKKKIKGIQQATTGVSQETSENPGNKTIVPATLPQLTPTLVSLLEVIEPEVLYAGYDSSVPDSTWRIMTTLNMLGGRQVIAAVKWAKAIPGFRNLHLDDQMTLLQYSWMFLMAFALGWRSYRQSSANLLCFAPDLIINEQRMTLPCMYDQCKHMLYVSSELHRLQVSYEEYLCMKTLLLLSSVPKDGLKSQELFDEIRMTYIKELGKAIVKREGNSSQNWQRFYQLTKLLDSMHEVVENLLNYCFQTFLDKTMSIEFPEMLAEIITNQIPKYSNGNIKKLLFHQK
Experimental: The androgen and glucocorticoid hormones elicit divergent and often opposing effects in cells, tissues, and animals. […] CB-03-06 GR antagonist and agonist activities were tested on an in vitro assay. Briefly, human kidney epithelial cells were transfected with DNA construct containing GR binding sites linked to luminescent based reporter molecule. After 24 hours, cells were treated under antagonist or agonist modes. After an additional 24 hours, luminescence which is proportional to GR agonist transcriptional activity was quantitated.
Antagonist Assay was based on inhibition of luminescence induced by Dexamethasone (Dex).
The antagonist activity of CB-03-06 was compared to a known GR antagonist, Mifepristone (also called RU486) as shown in FIG. 7.

[2] = tested on: MiaPaca-2 pancreatic tumor xenograft; experiment: Human pancreatic tumor xenograft in nude mice; assay type: in vivo; details: for in vivo antitumor activity compared with Cyproterone Acetate: Examples 5 and 6
Experimental: Cortexolone 17α-benzoate and Cyproterone Acetate were separately diluted in DMSO/2-hydroxypropyl β-cyclodextrin (vehicle).
The test was carried out comparing the anti-tumor activity of cortexolone 17α-benzoate at two different dosages (8.0 mg/kg, corresponding approximately at 230 μM, and 40 mg/kg, corresponding approximately at 1150 μM), versus the vehicle (i.e. 0.4% (v/v) tween 80 and 0.5% (w/v) carboxymethylcellulose in normal saline) and versus the comparator Cyproterone Acetate at two different dosages (7.4 mg/kg and 37 mg/kg).
1×10^6 MiaPaca-2 cells suspended in matrigel were sub-cutaneously injected into 6 week old athymic nude mice.
The treatment with the tested compounds, with the vehicle and with the comparative compound, was initiated after the tumor volume has reached 50 mm^3 after transplantation. All compounds were injected 100 μL/mouse of low dose solution (approximately 230 μM) or 100 μL/mouse of high dose solution (approximately 1150 μM) of cortexolone 17α-benzoate, vehicle and Cyproterone Acetate, respectively. Compounds and controls were administered subcutaneously daily for 28 days.
Tumors were measured every 4 days with a digital caliper.
The results are plotted in FIG. 1 as average change in tumor volume relative to the start of treatment. Tumor volume was calculated according to the formula 0.5236(r1)^2(r2) where r1<r2.
Error bars are the SEM for 7 to 10 mice per treatment group. P values were calculated according to the Student's t test.
Cortexolone 17α-valerate-21-propionate and Cyproterone Acetate were separately diluted in DMSO/2-hydroxypropyl β-cyclodextrin (vehicle).
The test was carried out comparing the anti-tumor activity of cortexolone 17α-valerate-21-propionate at two different dosages (approximately 8.6 mg/kg and 43 mg/kg) versus the vehicle (i.e. 0.4% (v/v) tween 80 and 0.5% (w/v) carboxymethylcellulose in normal saline) and versus the comparator Cyproterone Acetate at two different dosages (7.4 mg/kg and 37 mg/kg).
1×10^6 MiaPaca-2 cells suspended in matrigel were subcutaneously injected into 6 week old athymic nude mice.
The treatment with the tested compound, with the vehicle and with the comparative compound was initiated after the tumor has reached a volume of 50 mm^3 after implantation, injecting subcutaneously 100 μL/mouse of low dose solution (approximately 230 μM) or 100 μL/mouse of high dose solution (approximately 1150 μM) of cortexolone 17α-valerate-21-propionate, vehicle and Cyproterone Acetate, respectively. Compounds and controls were administered subcutaneously daily for 28 days. Tumors were measured every 4 days with a digital caliper.
The results are plotted in FIG. 2 as average change in tumor volume relative to the start of treatment. Tumor volume was calculated according to the formula 0.5236(r1)^2(r2) where r1<r2.
Cyproterone acetate (CPA), a well-known anti-androgen, was used as control. Briefly 1×10^6 MiaPaca2 cells suspended in matrigel were subcutaneously (sc) injected into 6 week old male athymic nude mice. Tumors were measured every 4 days with a digital caliper. Tumor volume was calculated according to the formula: 0.5236(r1)2(r2) where r1<r2. Treatment with CB-03-06 and control compounds were initiated after the tumor had reached 50 mm^3. Compounds diluted in DMSO/2-hydroxypropyl b-cyclodextrin (vehicle) were subcutaneously injected daily (100 microL/mouse) at the concentration of 40 mg/Kg daily for 28 consecutive days.

resting PBMC = experiment: IC50 on resting (quiescent) PBMC; assay type: cell-based, human
Experimental: The IC50 in PBMCs were tested in 2 different activation status: • stimulated—actively dividing cells • resting—quiescent, non-dividing cells
The IC50 in PBMCs were tested in 2 different activation status: • Stimulated—actively dividing cells • Resting—quiescent, non-dividing cells.
IC50 of the compounds was determined on fresh cells isolated from human blood (PBMC).

MiaPaca2 = experiment: Cell cycle arrest, propidium iodide staining; assay type: cell-based; details: 24 hours, different concentrations
Experimental: Apoptosis can occur at the G1/S or G2/M transition of the cell cycle. Cells were treated with CB-03-10 for 24 hours then fixed with paraformaldehyde and stained with propidium iodide. […] The lack of G1 block indicates no effect on p53. The S & G2/M blocks may indicate activity on cell cycle check point molecules. For S phase, a possible target is the cyclin dependent kinase 2 (CDK2). Gemzar and cisplatin are example drugs that act in S phase. For G2, a possible target is CDK1.

[3] = tested on: caspases 8, 9, 3/7 in MiaPaca2 cells; experiment: Caspase 8, 9 and 3/7 activity; assay type: cell-based
Experimental: To better analyze the phenomenon, the enzymatic activity of Caspase 8 (initiator caspase for Extrinsic Pathway) and Caspase 9 (initiator caspase for Intrinsic Pathway) and of Caspases 3 and 7 (effector caspases) were measured.
Gemcitabine (a known pancreatic cancer chemotherapeutic agent) and DMSO were used as positive and negative controls, respectively. There were three incubation time points: 8 hours, 24 hours, and 48 hours. After each time point, cells were lysed in multiplex buffer containing the caspase 3/7 substrate combined with either caspase 8 or caspase 9 reagents, which contain stable luciferase in proprietary buffers. The lysates were transferred to white opaque 96-well plates before measuring luminescence on a Tecan Safire instrument. Parallel plates treated identically were used to determine cell viability. All caspase activities were corrected for the number of viable cells.

Row | Structure (SMILES) | GR antagonist potency, times less than RU486 [1] [times] | pancreatic tumor size relative to the size when treatment was initiated ([2]; Example 5, MiaPaca-2 xenograft, nude mice, SC daily 28 days, high dose of cortexolone 17α-benzoate (40 mg/kg)) | pancreatic tumor size relative to the initial size ([2]; Example 22, MiaPaca2 xenograft, male nude mice, 40 mg/Kg SC daily 28 days, treatment period) | Median survival ([2]; Example 22, MiaPaca2 xenograft, 40 mg/Kg SC daily 28 days) [days] | in vivo antitumor activity compared with Cyproterone Acetate ([2]; MiaPaca-2 xenograft) | IC50 (resting PBMC; Homo sapiens, PBMC, read-out: IC50 on Resting PBMC, Example 7, Experiment 1) [µM] | IC50 (resting PBMC; Homo sapiens, PBMC, read-out: IC50 on Resting PBMC, Example 7, Experiment 2) [µM] | IC50 (resting PBMC; Homo sapiens, PBMC, read-out: in vitro proliferation IC50, PBMC RESTING, Table III) [µM] | cell cycle arrest (MiaPaca2) | caspase 8 and 9 activity, increase compared to the control ([3]; 20 or 50 μM, evident after 8 hours) [fold] | Caspase 3/7 induction ([3]; 48 hour incubation) | pancreatic tumor size relative to the initial tumor size ([2]; Example 6, MiaPaca-2 xenograft, nude mice, SC daily 28 days, for the time of treatment) | IC50 (resting PBMC; Example 7, Experiment 1, read-out: IC50 on Resting PBMC) [µM] | IC50 (resting PBMC; Example 7, Experiment 2, read-out: IC50 on Resting PBMC) [µM]
1 | C[C@]12CCC(=O)C=C1CC[C@@H]1[C@@H]2CC[C@@]2(C)[C@H]1CC[C@]2(OC(=O)c1ccccc1)C(=O)CO [CB-03-06, cortexolone 17α-benzoate] | 100 | less than 5 fold | less than 5 fold | 70 | antitumor activity higher than Cyproterone Acetate | 100 | 85 | 85 | induces an S phase block at lower concentrations then a G2/M block at higher concentration | ≤ 7 | induced by CB-03-06 at high level |  |  | 
2 | CCCCC(=O)O[C@]1(C(=O)COC(=O)CC)CC[C@H]2[C@@H]3CCC4=CC(=O)CC[C@]4(C)[C@H]3CC[C@@]21C [CB-03-10, cortexolone 17α-valerate-21-propionate] |  |  |  |  | antitumor activity higher than Cyproterone Acetate |  |  |  |  |  |  | less than 5 fold | 114 | 120
